We go through two compounds from article PMC8632988, “Inhibition of SYK and cSrc kinases can protect bone and cartilage in preclinical models of osteoarthritis and rheumatoid arthritis” (Scientific Reports, 2021).

The test system of series [1] is Sprague-Dowley rats, medial meniscal tear (MMT) model. In words: Surgically induced meniscal tear OA in rats. It counts as in vivo, rat. The following applies: 0.1 mg/kg subcutaneously once every three days, day 21. How it is done:
Medial meniscal tear (MMT) model was performed at Pharmenterprises, Russia according to the published procedure[31] and approved by Ethics Committee of Pharmenterprises. Male 4-month old Sprague-Dowley rats were anesthetized with Zoletil (Vibrac, France) and Xylazine (Interchemie werken "De Adelaar" BV, Netherlands) mixture. The medial collateral ligament was transected, and the medial meniscus was grasped with a hemostat and reflected proximally toward the femur. The meniscus was transected and then skin was closed with sutures. 60–90 min after surgery rats were subcutaneously injected with flexoprofen (VIC GROUP, Russia). Treatment groups (20 rats each) were intragastrically treated with MT-SYK-03 (100 and 500 mg/kg) or vehicle control (0.5% methylcellulose solution) 24 h before OA induction and then once daily for 21 day. Active control group was subcutaneously injected with zoledronic acid (0.1 mg/kg) 24 h before OA induction and then once every three days for 21 day. After 21 day animals were sacrificed; surgically operated right knee was removed and used for image analysis.

Series [2] has as its system Wistar rats, MIA osteoarthritis model. In words: Monosodium iodoacetate induced osteoarthritis in rats. It counts as in vivo, rat. How it is done:
Monosodium iodoacetate (MIA) osteoarthritis model was performed at Pharmenterprises, Russia according to the known procedure[32] and approved by Ethics Committee of Pharmenterprises. Male 10 week old Wistar rats were divided into eight groups: negative control (#1), positive control (#2) and six treatment groups (#3–8), ten rats in each group. Group #1 was left intact while rats in groups #2–8 were anesthetized on the day 0 with intraperitoneal injection of Zoletil and Xylazine mixture and given a single intra-articular injection of MIA through the infrapatellar ligament of the right knee. Rats were treated as follows: (#1, #2) 0.5% solution of methylcellulose in PBS (pH = 3) as vehicle control, (#3, #5) 100 mg/kg MT-SYK-03, (#4, #6) 500 mg/kg MT-SYK-03, (#7) 50 mg/kg nalgesin and (#8) 0.1 mg/kg zoledronic acid. Rats in groups #1–4 received treatment intragastrically QD, 25 and 1 h before the MIA injection, and then daily until the end of the study on the day 28. Rats in groups #5–6 received treatment intragastrically QD from the day 7 until the end of the study. Rats in group #7 were treated QD starting on the day 14 and until the end of the study. Finally, rats in group #8 were treated subcutaneously immediately after the MIA injection and then every third day until the study end. Disease progression was monitored by measuring mechanical hyperalgesia, mechanical allodynia and grip strength of hind paws on the days 14, 21, and 28, just before the treatment, and 1, 3, 6 h after it.

The subject of series [3] is mongrel rats, AIA model. In words: Adjuvant-induced arthritis in rats. It counts as in vivo. The settings on record: for Animal death / The increase in the volume of the paws relative to the initial level: Diclofenac 8 mg/kg QD intragastric. The procedure:
Rat adjuvant-induced arthritis (AIA) model was performed at Pharmenterprises, Russia as described previously^3 and approved by Ethics Committee of Pharmenterprises. Male 10 week old mongrel rats were divided into eleven groups: negative control (#1), positive control (#2) and nine treatment groups (#3–11), ten […] in each group. Group #1 was left intact, while subplantar injection of 0.1 mL of Complete Freund’s adjuvant (CFA, Sigma) was made on day 0 at right paws of rats in groups […]. […] Disease progression was monitored by measuring volumes of the right (involved) and left (non-involved) paws on days 0, 14, 18, 21, 25, and 28.

Where [4] appears, read: Zoledronic acid 0.1 mg/kg, 0–28 days once three days, 14 day, 1 hour after admin.
The mark [5] stands for this setting: Zoledronic acid 0.1 mg/kg, 0–28 days once three days, 14 day, 3 hours after admin.
Setting [6] is: Zoledronic acid 0.1 mg/kg, 0–28 days once three days, 21 day, 1 hour after admin.
[7] abbreviates: Zoledronic acid 0.1 mg/kg, 0–28 days once three days, 21 day, 3 hours after admin.
Setting [8] is: Zoledronic acid 0.1 mg/kg, 0–28 days once three days, 28 day, 1 hour after admin.
[9] abbreviates: Zoledronic acid 0.1 mg/kg, 0–28 days once three days, 28 day, 3 hours after admin.

`O=P(O)(O)C(O)(Cn1ccnc1)P(=O)(O)O` [zoledronic acid, reference compound]: the Lesion area in series [1] was 25.3 ± 2.2^& %. Moreover, the Lesion depth in series [1] is 50.5 ± 7.1%. Moreover, the “hind paws grip strength” value in series [2] (setting [4]) is 60.4 ± 10.4 & % from the initial one; in series [2] (setting [5]), 75.4 ± 7.7 & % from the initial one; in series [2] (setting [6]), 96 ± 6.8 % from the initial one; in series [2] (setting [7]) it was 84.3 ± 7.5 % from the initial one; in series [2] (setting [8]) it was 92.8 ± 7.6 % from the initial one; in series [2] (setting [9]), 93.9 ± 15.5 % from the initial one. In addition, in series [2] (rat MIA, days 14, 21, 28), the “hind paws grip strength” value is on record as “stable statistically significant improvements, but only on day 28”. Further, the “mechanical allodynia pain threshold” value was 100.6±8 & % from the initial one in series [2] (setting [4]); 101.3±12.3 & % from the initial one in series [2] (setting [5]); 108.2±7.9 & % from the initial one in series [2] (setting [6]); 106.8±6.5 & % from the initial one in series [2] (setting [7]); 112.4±8.6 & % from the initial one in series [2] (setting [8]); 126.6±15.4 & % from the initial one in series [2] (setting [9]). Moreover, the “mechanical allodynia pain threshold” value in series [2] (rat MIA, reference drugs) is given as “increased the pain threshold”. Besides, the mechanical hyperalgesia is on record as 68.1 ± 6.3 & % from the initial one in series [2] (setting [4]); 68.3 ± 3.5 & % from the initial one in series [2] (setting [5]); 85.6 ± 5.6 % from the initial one in series [2] (setting [6]); 83.4 ± 5.2 % from the initial one in series [2] (setting [7]); 81.8 ± 3.7 & % from the initial one in series [2] (setting [8]); 84.2 ± 7.4 % from the initial one in series [2] (setting [9]). For the same compound, the “Mechanical hyperalgesia pain threshold” value in series [2] (rat MIA, reference drugs) was “positive effects, but they were statistically significant only on days 21 and 28”.

In the case of `O=C(O)Cc1ccccc1Nc1c(Cl)cccc1Cl` [diclofenac, reference compound], the Animal death came to 0% in series [3] (14 days); 0% in series [3] (18 days); 10% in series [3] (21 days); 20% in series [3] (25 days); 20% in series [3] (28 days). Moreover, the “The increase in the volume of the paws relative to the initial level” value in series [3] (non-involved paws, 14 days) is on record as 14.28±0.98& %; in series [3] (non-involved paws, 18 days), 22.01±2.42& %; in series [3] (non-involved paws, 21 days), 22.85±2.82& %; in series [3] (non-involved paws, 25 days) it was 19.99±2.76& %; in series [3] (non-involved paws, 28 days) it was 20.8±3.06& %; in series [3] (treated paws, 14 days), 85.1 ± 8.01 & n = 10%. Further, the “The increase in the volume of the paws relative to the initial level” value is recorded as 90.16 ± 9.34 & n = 10% in series [3] (treated paws, 18 days); 89.64 ± 9.99 & n = 9% in series [3] (treated paws, 21 days); 88.04 ± 12.52 &. n = 8% in series [3] (treated paws, 25 days); 92.37 ± 13.78 & n=8% in series [3] (treated paws, 28 days). In series [3] (rat AIA, diclofenac, day 28), the “Volume of non-involved paws” value is given as “no statistically significant effect”. For the same compound, in series [3] (rat AIA, sodium diclofenac), the Rats died came to 20%.
